# In publication PMC4876444, “Two-Photon Enzymatic Probes Visualizing Sub-cellular/Deep-brain Caspase Activities in Neurodegenerative Models” (Scientific Reports, 2016):
# System: caspase-3/-7-like activities in brain slices
# Assay: TPFM of caspase-3 activation in brain slices of ethanol-intoxicated mouse
# Conditions: 200-μm-thick brain sections of ethanol-intoxicated 7-day-old C57BL/6 mice, probe 120 μM, 3 h, 37 °C, Z-axis scanning TPFM
# Description: Figure 4 Imaging endogenous caspase activities in deep tissues. (a) TPFM of caspase-3 activation in brain slices of ethanol-intoxicated 7-day-old C57BL/6 mouse using C3RA (120 μM, 3 h). Top: 3D images of the mouse brain slice taken along the Z-axis from 0 to 160 μm at 10x magnification. Bottom: images taken at a depth of 120 μm at 40x magnification. […]: control slices (saline-treated); panels 2/6/4/8: treated with caspase-3/7 inhibitor I (200 μM, 3 h). Scale bar = 50 μm. (b) RFU readings extracted from (a) (FTPFM, blue bars) versus those from in vitro enzymatic assays using lysates from the same brain slices (RFU, orange bars). The signal from saline controls was set as “0” and that from ethanol-treated samples was set as “1” in RFU quantification. Due to the base-level active caspase-3 in the saline controls, negative readings were shown with inhibitor-treated samples. (c) WB analysis of caspase-3/-1/-8 activation in lysates of the same mouse brain slices shown in (a). (d) Normalized RFU readings from in vitro enzymatic assays using brain lysates (300 μg) of saline/ethanol treated mice after incubation with C1RB/C3RA/C8RA (6 μM) for 1 h at 37 °C.
# All two-photon images were taken on a Leica TCS SP5X Confocal Microscope System. […]
compound,measurement,value
"CC(=O)N[C@@H](CC(=O)O)C(=O)N[C@@H](CCC(=O)O)C(=O)N[C@H](C(=O)N[C@@H](CC(=O)O)C(=O)Nc1ccc2cc(C(C)=O)ccc2c1)C(C)C [C3RA, Ac-DEVD-AAN]",tissue depth of detection of caspase-3/-7-like activities,≤ 160 μm
